The values that follow come from article PMC3480388 (PLoS ONE, 2012).

The target of test [1] is T1, wild type rP2X2 (Rattus norvegicus, UniProt P49653).
T1 construct: expressed in transfected cells; host or cells: Xenopus laevis oocytes (RNA injection)
T1 sequence (P49653 1-472): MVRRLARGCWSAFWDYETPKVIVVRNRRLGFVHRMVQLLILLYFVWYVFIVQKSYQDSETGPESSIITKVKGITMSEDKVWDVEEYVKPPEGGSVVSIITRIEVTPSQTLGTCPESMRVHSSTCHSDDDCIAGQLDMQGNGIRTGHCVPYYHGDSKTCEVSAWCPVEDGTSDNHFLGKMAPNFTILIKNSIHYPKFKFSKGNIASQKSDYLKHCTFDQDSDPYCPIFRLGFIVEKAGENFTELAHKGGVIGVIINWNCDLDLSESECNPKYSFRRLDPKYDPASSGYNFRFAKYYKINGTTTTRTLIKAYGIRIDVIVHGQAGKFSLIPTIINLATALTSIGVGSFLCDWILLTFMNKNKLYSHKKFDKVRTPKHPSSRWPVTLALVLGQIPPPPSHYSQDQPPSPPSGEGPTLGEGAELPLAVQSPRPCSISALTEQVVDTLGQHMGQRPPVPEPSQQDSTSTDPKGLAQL
The test is described as follows: Two-electrode voltage clamp of Xenopus oocytes expressing wild type rP2X2. Type of test: cell-based.

The target in test [2] is T2, rP2X2 K69C mutant receptor (Rattus norvegicus, UniProt P49653, K69C).
T2 construct: expressed in transfected cells; host or cells: Xenopus laevis oocytes (RNA injection)
T2 sequence (P49653 1-472 K69C): T1 sequence (P49653 1-472) with K69C
The test is described as follows: Two-electrode voltage clamp of Xenopus oocytes expressing K69C mutant rP2X2. Type of test: cell-based. Particulars: for restoration of ability to respond to ATP after test compound: test compound 1 mM, 1 minute, then 1,000 µM ATP; for amplitude of response to 100 µM zinc: K69C after AM546 then MTSEA, N = 6; for Response after challenge compound (nA) 100 µM Zn / Response after challenge compound (nA) 1,000 µM ATP / Response after challenge compound (nA) pH 6.5: test compound 50 µM, 5 minutes; for binding to and activation of K69C receptors: tested for responses to zinc, pH 6.5 and ATP, then challenge with AM546 or MTSEA. In general terms: Two-electrode voltage clamp is typically applied to oocytes expressing channels or transporters.

Test [3] addresses T3, rP2X2 K308C mutant receptor (Rattus norvegicus, UniProt P49653, K308C).
T3 construct: expressed in transfected cells; host or cells: Xenopus laevis oocytes (RNA injection)
T3 sequence (P49653 1-472 K308C): T1 sequence (P49653 1-472) with K308C
Description: Two-electrode voltage clamp of Xenopus oocytes expressing K308C mutant rP2X2. It is filed as cell-based. The settings on record: for restoration of ability to respond to ATP after test compound: test compound 1 mM, 15 minutes, then 1,000 µM ATP.

Test [4] concerns the target T4, rP2X2 K69C/H319K double mutant (Rattus norvegicus, UniProt P49653, H319K/K69C).
T4 construct: expressed in transfected cells; host or cells: Xenopus laevis oocytes (RNA injection)
T4 sequence (P49653 1-472 K69C/H319K): T1 sequence (P49653 1-472) with K69C, H319K
Description: Two-electrode voltage clamp of Xenopus oocytes expressing K69C/H319K double mutant rP2X2. Type of test: cell-based.

In test [5] the target is T1, wild type rP2X2. Particulars: cited from earlier work.
Another test concerns uninjected oocytes. The test is described as follows: Two-electrode voltage clamp of uninjected oocytes (control). It is filed as cell-based, Xenopus laevis. Particulars: N = 14. The method, then:
This study was carried out in strict accordance with the recommendations in the Guide for the Care and Use of Laboratory Animals of the National Institutes of Health. The protocol was approved by the University Committee on the Use and Care of Animals of the University of Michigan (Protocol 08396-4). The rP2X2 receptors were expressed in defolliculated stage V-VI Xenopus laevis oocytes. Oocytes were harvested using procedures that have been described in detail previously.
RNAs encoding wild type and mutant rP2X2 receptors were synthesized using the mMessage mMachine T7 kit (Life Technologies, Grand Island, NY). Each oocyte was injected with 50 nl of RNA (10–20 ng/µl). Two-electrode voltage clamp experiments were performed 2–5 days after RNA injection. Except where indicated otherwise, recordings were made at a holding potential of −50 mV. Recording electrodes were pulled from thin walled borosilicate glass and had resistances of 0.2–1 MΩ. Currents were recorded with a Turbo TEC-03 or TEC-10 voltage clamp amplifier (npi electronic GmBH, Tamm, Germany). Data acquisition was performed using a Digidata 1322A interface controlled by pCLAMP 9 or 10 (Molecular Devices, Sunnyvale, CA).
To regulate the delivery of most test solutions into the recording chamber, we used a gravity fed valve array. […]

The subject of test [6] is P2X1 mutant homologous to K69A. Particulars: ref [28]; cited from earlier work.
The mark [7] stands for this setting: AM546-treated K69C, no exogenous ATP.

Residue numbers refer to the chain shown, from its start. Like-named read-outs stand apart in the source and are kept apart here.

For orientation: EC50 means the concentration needed to bring the measured effect to its halfway point. Consider `Nc1ncnc2c1ncn2C1OC(COP(=O)(O)OP(=O)(O)OP(=O)(O)O)C(O)C1O` (stereo not drawn) [ATP, Disodium ATP], for which the inward current entry at wild type rP2X2 [1] (1,000 µM ATP, same RNA concentration as K69C, 'over' refers to magnitude) is recorded as “over −20 µA”. Besides, the EC50 is 32 ± 1 µM at wild type rP2X2 [1] (wild type rP2X2), 924 ± 102 µM in test [2] (MTSEA-modified K69C), 374 ± 35 µM in test [3] (MTSEA-modified K308C) and approximately 145 µM in test [4]. In test [2] (AM546-modified K69C, 1,000 µM ATP, 'greater than' refers to magnitude), the ATP response entry is “greater than −100 nA”. The figures for the “Hill coefficient (ATP)” value in test [2] (MTSEA-modified K69C) and in test [3] (MTSEA-modified K308C) were 1.4±0.1 and 1.3±0.1, respectively. Further, the “Hill Coefficient (typical value for wild type rP2X2)” value on wild type rP2X2 [5] (typical value used to estimate basal ATP levels, ref not given) is on record as 1.5.

As for `CSS(C)(=O)=O` [MMTS, Methyl Methanethiosulfonate], the “restoration of ability to respond to ATP after test compound” value in test [2] and in test [3] was “None of these compounds restored the ability” each time.

Take `C[N+](C)(C)CCSS(C)(=O)=O.[Cl-]` [MTSET, [2-(Trimethylammonium)ethyl] Methanethiosulfonate Chloride]: the “restoration of ability to respond to ATP after test compound” value in test [2] and in test [3] was “None of these compounds restored the ability” in each case.

In general, IC50 refers to the midpoint of a concentration-inhibition curve. `Cc1ccc(C(=O)Nc2ccc(S(=O)(=O)O)c3cc(S(=O)(=O)O)cc(S(=O)(=O)O)c23)cc1NC(=O)c1cccc(NC(=O)Nc2cccc(C(=O)Nc3cc(C(=O)Nc4ccc(S(=O)(=O)O)c5cc(S(=O)(=O)O)cc(S(=O)(=O)O)c45)ccc3C)c2)c1` [suramin, Suramin]: on wild type rP2X2 [1] (cells with maximal currents to saturating ATP of about −20 µA), the “outward suramin currents due to inhibition of basal ATP” value is 10–500 nA. Also, the “Hill coefficient (suramin)” value at wild type rP2X2 [1] (no exogenous ATP, N = 11) turned out to be 1.2±0.1. Moreover, on wild type rP2X2 [1] (read-out: suramin IC50 (outward current response)), the concentration for half-maximal inhibition (IC50) stood at 8.3 ± 1.1 µM. Moreover, in test [2] (setting [7]), the “Hill coefficient (suramin activation)” value came to 1.1±0.1 and the “maximal response to suramin (inward current)” value is reported as −450±51 nA. Besides, in test [2] (K69C prior to AM546 treatment, no exogenous ATP), the response to suramin result is “no response”. For the same compound, the half-maximal effective concentration (EC50) in test [2] (read-out: suramin EC50 (activation)) is 52 ± 5 µM. Further, the average suramin response in the test with uninjected oocytes was −1.3±1.9 nA. In addition, the IC50 for suramin entry in test [6] is given as “normal”.

In the case of `[Cl-].[Cl-].[Zn+2]` [zinc, Zinc chloride], the “current as % of the maximum after addition of zinc” value on wild type rP2X2 [1] (20 µM zinc, ATP giving 10% of maximum at pH 7.5) is 80–90%. In addition, the figures for the “amplitude of response to 100 µM zinc” value in test [2] (with 1,000 µM ATP) and in test [2] (without ATP) were 2.74±0.47 µA and 0.39±0.06 µA, respectively. The Izinc average current in test [3] (untreated K308C, 100 µM zinc, N = 6) is −5±4 nA. Moreover, in test [4] (50 µM zinc, after AM546, 'over' refers to magnitude), the “additional inward current in response to zinc” value was “over −6 µA”. For the same compound, the “current in response to zinc alone” value in test [4] (50 µM zinc, before AM546, no exogenous ATP, N = 12) was −2.9±0.9 µA. The “average response to a zinc jump” value in the test with uninjected oocytes (50 µM zinc) is recorded as “+8.6±1.9 nA”. Also, the “enhancement of the current by a zinc jump” value on wild type rP2X2 [5] (untreated wild type, EC10 ATP, pH 7.5, 20 µM zinc, ref [17], [20]) is reported as “approximately 8 fold”.

With Alexa Fluor 488 C5-maleimide [AM-488], in test [2] (then challenge compound AM-546), the “Response after challenge compound (nA) 100 µM Zn” value (shortened to “Response … (nA) 100 µM Zn”) is −10±9 nA, the “Response after challenge compound (nA) 1,000 µM ATP” value (“Response … (nA) 1,000 µM ATP” for short) was −10±3 nA and the “Response after challenge compound (nA) pH 6.5” value (shortened to “Response … (nA) pH 6.5”) is −16±5 nA. Further, the “binding to and activation of K69C receptors” value (from here on “binding to and activation”) in test [2] is recorded as “could bind to, but not activate”.

As to Alexa Fluor 568 C5-maleimide [AM-568], in test [2] (then challenge compound MTSEA), the “Response … (nA) 100 µM Zn” value is −9±4 nA, the “Response … (nA) 1,000 µM ATP” value was −41±9 nA and the “Response … (nA) pH 6.5” value is −25±0 nA. Besides, the “binding to and activation” value in test [2] is “could bind to, but not activate”.

On to Alexa Fluor 594 C5-maleimide [AM-594], for which, in test [2] (then challenge compound MTSEA), the “Response … (nA) 100 µM Zn” value is given as −2±1 nA, the “Response … (nA) 1,000 µM ATP” value was −26±7 nA and the “Response … (nA) pH 6.5” value is −7±5 nA. Further, the “binding to and activation” value in test [2] is “could bind to, but not activate”.
